Experimental findings from patent US20100240654A1, “HYDRAZIDE DERIVATIVES” (priority 2004, published 2010) are described below.

Test [1] deals with T1, human clotting factor VIIa (Homo sapiens, UniProt P08709).
T1 construct: a human clotting factor VIIa (Factor VIIa) purified sample; purchased Enzyme Research Laboratories (Factor VIIa); Calbiochem (tissue factor) HFVIIa (Factor VIIa); 612151 (tissue factor)
Put plainly: Inhibitory activity against clotting factor VIIa (chromogenic substrate Spectrozyme FVIIa, with tissue factor). The class given is biochemical. The conditions noted are these: 10 nmol/L TF, 5 nmol/L Factor VIIa, room temperature 40 minutes, 405 nm. The protocol: Dimethylsulfoxide (DMSO) solutions were prepared with compounds of the invention at concentration of 10 mmol/L (10 mmol/L compound solutions).
One packet of tris-hydroxymethylaminomethane-preset (Tris Preset) (product of SIGMA Corp., Catalog No. T8293), 8.8 g of sodium chloride (NaCl) and 1 g of bovine serum albumin (BSA) were dissolved in 1 L of water to prepare a Tris-BSA buffer (100 mmol/L Tris, 0.15 mol/L NaCl, 0.1% BSA, pH 7.4).
The Tris-BSA buffer (180 μL) was added to the aforementioned 10 mmol/L compound solution (20 μL). A 10-fold dilution series was prepared for this mixture using the aforementioned Tris-BSA buffer, and solutions with the compound at concentrations of 1.0 mmol/L, 100, 10, 1, 0.1, 0.01 and 0.001 μmol/L were prepared (1.0 mmol-0.001 μmol/L compound solutions).
As a control, a solution was prepared by 10-fold dilution of DMSO with the Tris-BSA buffer (control 10% solution).
After dissolving one packet of Tris preset, NaCl (8.8 g) and BSA (1 g) in water (about 900 mL), there were added 1 mol/L aqueous calcium chloride (CaCl2) (15 mL) and 1 mg/mL aqueous cephalin (30 mL), and the total volume was brought to 1 L by adding water. To this solution was added a human tissue factor (TF) sample (product of Calbiochem, Catalog No. 612151) (450 μg) to a TF sample concentration of 10 nmol/L, and then a human clotting factor VIIa (Factor VIIa) purified sample (product of Enzyme Research Laboratories, Catalog No. HFVIIa) (250 μg) was added to a Factor VIIa purified sample concentration of 5 nmol/L, to prepare an enzyme solution (100 mmol/L Tris-HCl, 0.15 mol/L NaCl, 15 mmol/L CaCl2, 30 μg/mL cephalin, 1 mg/mL BSA, 10 nmol/L TF, 5 nmol/L Factor VIIa).
To 110 μL of this enzyme solution was added 15 μL of each of the 1.0 mmol-0.001 μmol/L compound solutions, and then 25 μL of a 1.0 mmol/L synthetic chromogenic substrate solution (Spectrozyme FVIIa) was added and the mixture was allowed to stand at room temperature for 40 minutes. Next, the amount of 4-nitroanilide released into the solution was quantitated by spectrophotometry (405 nm).
A control measurement was conducted in the same manner, using the control 10% solution instead of the compound solution.
This measurement yielded the enzyme reaction inhibition in the presence of 100 μmol/L to 0.1 nmol/L of each compound of the invention. The enzyme reaction inhibition at each compound concentration was subjected to non-linear regression analysis, and the IC50 value for inhibitory activity of each compound against clotting factor VIIa was calculated.

Test [2] relates to healthy human plasma. Put plainly: Blood clotting time prolongation (prothrombin time, steel ball method). As to conditions: human thromboplastin, 37° C.

T1 sequence (P08709 213-466 limits assumed): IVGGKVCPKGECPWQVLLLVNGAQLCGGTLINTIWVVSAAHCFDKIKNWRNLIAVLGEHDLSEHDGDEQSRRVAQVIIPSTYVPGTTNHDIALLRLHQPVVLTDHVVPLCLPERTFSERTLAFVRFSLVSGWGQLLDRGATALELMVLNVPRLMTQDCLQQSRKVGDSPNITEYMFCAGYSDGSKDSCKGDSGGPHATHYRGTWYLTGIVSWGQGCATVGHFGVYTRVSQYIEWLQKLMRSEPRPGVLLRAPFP
T1 sequence (P08709 61-212 limits assumed): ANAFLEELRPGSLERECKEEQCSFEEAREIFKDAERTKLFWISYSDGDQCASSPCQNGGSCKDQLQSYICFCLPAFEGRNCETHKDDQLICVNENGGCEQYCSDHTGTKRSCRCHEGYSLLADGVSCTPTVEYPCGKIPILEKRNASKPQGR
T1 sequence (P13726 33-295 partner): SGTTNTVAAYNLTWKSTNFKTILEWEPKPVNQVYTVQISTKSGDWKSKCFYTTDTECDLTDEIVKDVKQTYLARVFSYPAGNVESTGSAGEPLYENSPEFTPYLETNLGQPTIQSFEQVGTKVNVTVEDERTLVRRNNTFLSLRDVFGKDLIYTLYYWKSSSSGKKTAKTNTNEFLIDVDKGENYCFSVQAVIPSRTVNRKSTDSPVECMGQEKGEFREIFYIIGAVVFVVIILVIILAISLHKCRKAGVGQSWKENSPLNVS

Compound `CCOc1cc(C(Nc2ccc(C(=N)N)cc2)C(=O)NNc2ccccc2C(=O)O)ccc1OCC(=O)N(C)C.O=C(O)C(F)(F)F` (stereo not shown) [Example X-246, 2-[N′-[2-(4-Carbamimidoylphenylamino)-2-(4-dimethylcarbamoylmethoxy-3-ethoxyphenyl)acetyl]hydrazino]benzoic acid trifluoroacetate] returned an IC50 in test [1] of 165 nM. Besides, in test [2], the “h PT × 1.1: compound concentration which produced 10% prolongation compared to the control clotting time” value turned out to be 0.90 µM.

In the case of `CCOc1cc(C(Nc2ccc(C(=N)N)cc2)C(=O)NNc2ccccc2OC)ccc1OCCN(C)C.O=C(O)C(F)(F)F` (stereo not shown) [Example 56, 4-(((4-(2-Dimethylaminoethoxy)-3-ethoxyphenyl)-(N′-(2-methoxyphenyl)hydrazinocarbonyl)methyl)amino)benzamidine trifluoroacetate], the IC50 in test [1] was 198 nM. Moreover, the “h PT × 1.1: compound concentration which produced 10% prolongation compared to the control clotting time” value in test [2] came out at 0.41 µM.

`COc1cc(F)c(C(Nc2ccc(C(=N)N)cc2)C(=O)NNC(=O)c2ccccc2Br)cc1OC.O=C(O)C(F)(F)F` (stereo not shown) [Example 72, 4-(2-(N’-(2-Bromobenzoyl)hydrazino)-1-(2-fluoro-4,5-dimethoxyphenyl)-2-oxoethylamino)benzamidine trifluoroacetate] gave an IC50 in test [1] of 259 nM. Further, the “h PT × 1.1: compound concentration which produced 10% prolongation compared to the control clotting time” value in test [2] amounted to 1.20 µM.

Turning to `CCOc1cc(C(Nc2ccc(C(=N)N)cc2)C(=O)NNC(=O)c2cnccc2Cl)ccc1OC(C)C.O=C(O)C(F)(F)F` (stereo not shown) [Example 25, 4-(2-(N′-(4-Chloropyridine-3-carbonyl)hydrazino)-1-(3-ethoxy-4-isopropoxyphenyl)-2-oxoethylamino)benzamidine trifluoroacetate], half-maximal inhibition in test [1] (IC50) was put at 84 nM. Besides, in test [2], the “h PT × 1.1: compound concentration which produced 10% prolongation compared to the control clotting time” value worked out at 1.20 µM.

With `CCOc1cc(C(Nc2ccc(C(=N)N)cc2)C(=O)NNC(=O)c2ccncc2F)ccc1OC(C)CN(C)C.O=C(O)C(F)(F)F` (stereo not shown) [Example X-254, 4-(1-(4-(2-Dimethylamino-1-methylethoxy)-3-ethoxyphenyl)-2-(N′-(3-fluoropyridine-4-carbonyl)hydrazino)-2-oxoethylamino)benzamidine trifluoroacetate], the IC50 in test [1] is 50 nM. The “h PT × 1.1: compound concentration which produced 10% prolongation compared to the control clotting time” value in test [2] was 0.59 µM.

In turn, `CCOc1cc(C(Nc2ccc(C(=N)N)cc2)C(=O)NNC(=O)c2ccncc2F)ccc1OCC(C)(C)N.O=C(O)C(F)(F)F` (stereo not shown) [Example X-248, 4-[1-[4-(2-Amino-2-methylpropoxy)-3-ethoxyphenyl]-2-[N′-(3-fluoropyridine-4-carbonyl)-hydrazino]-2-oxoethylamino]benzamidine trifluoroacetate] came in with a half-inhibitory concentration (IC50) in test [1] of 173 nM. For the same compound, the “h PT × 1.1: compound concentration which produced 10% prolongation compared to the control clotting time” value in test [2] came to 0.83 µM.

`CCOc1cc(C(Nc2ccc(C(=N)N)cc2)C(=O)NNC(=O)c2ccncc2Cl)ccc1OCCOC.O=C(O)C(F)(F)F` (stereo not shown) [Example 78, 4-(2-(N′-(3-Chloropyridine-4-carbonyl)hydrazino)-1-(3-ethoxy-4-(2-methoxyethoxy)phenyl)-2-oxoethylamino)benzamidine trifluoroacetate] registered an IC50 in test [1] of 49 nM. In addition, in test [2], the “h PT × 1.1: compound concentration which produced 10% prolongation compared to the control clotting time” value is 0.42 µM.

The compound `CCOc1cc(C(Nc2ccc(C(=N)N)cc2)C(=O)NNC(=O)c2ccncc2Cl)ccc1OCC(=O)N(C)C.O=C(O)C(F)(F)F` (stereo not shown) [Example 61, 2-(4-(1-(4-Carbamimidoylphenylamino)-2-(N′-(3-chloropyridine-4-carbonyl)hydrazino)-2-oxoethyl)-2-ethoxyphenoxy)-N,N-dimethylacetamide trifluoroacetate] had an IC50 in test [1] of 184 nM. Besides, the “h PT × 1.1: compound concentration which produced 10% prolongation compared to the control clotting time” value in test [2] is 0.41 µM.
